“Also recorded” adds a separate entry of the source.
Assays:
[1] = Surface tension determination in water (Kruss K12 Tensiometer, Wilhelmy plate); assay type: physicochemical; details: for surface tension versus concentration profile, comparison in words: FIG. 1, 2, 3, 5
Experimental: Test Procedure I—Surface Tension Determination
(§1) All surface tensions were determined using a Kruss K12 Tensiometer. The tensiometer was integrated with an automatic dosimat and a computer, using a software package for dynamic contact angle (K121). The program was run using a Wilhelmy platinum plate (PL12) and glass sample vessel (GL7). All parts referenced above including instrument and computer are available from Kruss USA, Charlotte, N.C.

[2] = Surface tension measurements in tributyl phosphate; assay type: physicochemical; details: 2000 ppm in tributyl phosphate
Experimental: as §1
Surface tension measurements were obtained as described above with the exception that the measurments were obtained in tributyl phosphate.

[3] = DC conductivity of potassium salts in tributylphosphate; assay type: physicochemical; details: 3000 ppm in tributyl phosphate, 21.6-21.9° C.
Source text: Four tributylphosphate samples, with or without dissolved anti-erosion additives, measured for DC conductivity. The four samples were neat tributyl phosphate (control), tributyl phosphate with 3000 ppm FC-98, tributyl phosphate with 3000 ppm PBSK, and tributyl phosphate with 3000 ppm potassium bis(perfluorobutanesulfonyl)imide (DBIK).
The conductivity probe was carefully cleaned with EM Science OMNISOLV™ grade methanol, dried in a clean nitrogen stream, and allowed to equilibrate back to ambient temperature between samples.

[4] = Bioelimination study, fluorochemical sulfonate in male rat liver tissue; assay type: in vivo; details: for factor lower than C8F17SO3− / factor lower than C6F13SO3−: liver amount; for Amount of Sulfonate, Day 1 / Amount of Sulfonate, Day 14 / Amount of Sulfonate, Day 28: male rat liver tissue, dose 30 (C4), 10 (C6), 3 (C8) mg/kg body weight/day; for Amount of Sulfonate, Day 1: Day 1 following completion of feeding; for Amount of Sulfonate, Day 1N / Amount of Sulfonate, Day 14N / Amount of Sulfonate, Day 28N: male rat liver, normalized to a feeding level of 3 mg/kg body weight per day; for elimination from the body, in words: tested in the form of its potassium salt
Experimental: Comparative study of potassium perfluorobutanesulfonate (using a dose level of 30 mg/kg body weight/day), potassium perfluorohexanesulfonate (using a dose level of 10 mg/kg body weight/day), and potassium perfluorooctanesulfonate (using a dose level of 3 mg/kg body weight/day).

[5] = Solubility in 10/1 buffered oxide etch solution
[6] = 28 days following completion of feeding
[7] = 28 days following completion of feeding, after normalization to the same feeding levels
[8] = immediately following completion of feeding

In the case of `O=S(=O)([N-]S(=O)(=O)C(F)(F)C(F)(F)C(F)(F)C(F)(F)F)C(F)(F)C(F)(F)C(F)(F)C(F)(F)F.[K+]` [C4F9SO2NKSO2C4F9, potassium bis(perfluorobutanesulfonyl)imide], the “surface tension (surface energy)” value ([1]; 10 ppm) is reported as 61.85 dynes/cm, the “surface tension (surface energy)” value ([1]; 100 ppm) is reported as 41.61 dynes/cm and the “surface tension (surface energy)” value ([1]; 1000 ppm) is reported as 34.02 dynes/cm. The “surface tension versus concentration profile, comparison in words” value [1] was “surface tensions significantly less than PBSK and comparable to potassium perfluorooctanesulfonate at equal concentrations; also recorded: the same or better surface tension in water as C8F17SO3K”, the “Surface Tension @ 2000 ppm” value [2] was 27.34 dyne/cm and the “Observed Conductivity” value [3] was 13.8 uS/cm.
For `O=S(=O)([O-])C(F)(F)C(F)(F)C(F)(F)C(F)(F)C(F)(F)C(F)(F)F.[K+]` [C6F13SO3^−, potassium perfluorohexanesulfonate], the “factor lower than C8F17SO3−” value [4, 6] was 6.5, the “factor lower than C8F17SO3−” value [4, 7] was 21.5 and the “factor lower than C8F17SO3−” value [4, 8] was 1.3. The “Amount of Sulfonate, Day 1” value [4] was 327 ± 52 ppm, the “Amount of Sulfonate, Day 14” value [4] was 61.9 ± 11.7 ppm and the “Amount of Sulfonate, Day 28” value [4] was 36.3 ± 7.4 ppm. For the same molecule, the “Amount of Sulfonate, Day 1N” value [4] was 98 ppm, the “Amount of Sulfonate, Day 14N” value [4] was 19 ppm and the “Amount of Sulfonate, Day 28N” value [4] was 11 ppm.
With `O=S(=O)([O-])C(F)(F)C(F)(F)C(F)(F)C(F)(F)C(F)(F)C(F)(F)C(F)(F)C(F)(F)F.O=S(=O)([O-])C(F)(F)C(F)(F)C(F)(F)C(F)(F)C(F)(F)C(F)(F)C(F)(F)C(F)(F)F.[Ca+2]` [Ca(C8F17SO3)2] the “Surface Tension @ 2000 ppm” value [2] was 26.15 dyne/cm.
For `O=S(=O)([N-]S(=O)(=O)C(F)(F)C(F)(F)C(F)(F)C(F)(F)F)C(F)(F)C(F)(F)C(F)(F)C(F)(F)F.[Li+]` [DBI-Li, Lithium bis(perfluorobutanesulfonyl)imide], the surface tension ([1]; 200 ppm) was 53.2 dyne/cm, the surface tension ([1]; 450 ppm) was 48.1 dyne/cm and the surface tension ([1]; 960 ppm) was 42.8 dyne/cm. For the same molecule, the surface tension ([1]; 1300 ppm) was 41.5 dyne/cm, the surface tension ([1]; 1700 ppm) was 39.1 dyne/cm and the surface tension ([1]; 2600 ppm) was 36.0 dyne/cm. The “surface tension versus concentration profile, comparison in words” value [1] was “significantly lower surface tensions than the shorter chain homologues”.
`N.O=S(=O)(NS(=O)(=O)C(F)(F)C(F)(F)C(F)(F)C(F)(F)F)C(F)(F)C(F)(F)C(F)(F)C(F)(F)F` [DBI-NH4, NH4^+−N(SO2C4F9)2] showed a surface tension ([1]; 200 ppm) of 48.6 dyne/cm, a surface tension ([1]; 450 ppm) of 44.1 dyne/cm and a surface tension ([1]; 960 ppm) of 40.1 dyne/cm. For the same molecule, the surface tension ([1]; 1300 ppm) was 38.7 dyne/cm, the surface tension ([1]; 1700 ppm) was 35.9 dyne/cm and the surface tension ([1]; 2600 ppm) was 31.5 dyne/cm. For the same molecule, the “surface tension versus concentration profile, comparison in words” value [1] was “better surfactants than NH4^+−OSO2C8F17”.
In the case of `O=S(=O)([O-])C(F)(F)C(F)(F)C(F)(F)C(F)(F)F.[K+]` [Example C4F9SO3K, Potassium perfluorobutanesulfonate], the “surface tension (surface energy)” value ([1]; 10 ppm) is reported as 70 dynes/cm, the “surface tension (surface energy)” value ([1]; 100 ppm) is reported as 67.5 dynes/cm and the “surface tension (surface energy)” value ([1]; 1000 ppm) is reported as 53 dynes/cm. The “surface tension versus concentration profile, comparison in words” value [1] was “less effective than perfluorooctanesulfonate in lowering the surface tension of water”, the “Surface Tension @ 2000 ppm” value [2] was 27.32 dyne/cm and the “Observed Conductivity” value [3] was 3.5 uS/cm. For the same molecule, the “factor lower than C6F13SO3−” value [4, 6] was greater than 1400, the “factor lower than C6F13SO3−” value [4, 7] was 4400 and the “factor lower than C6F13SO3−” value [4, 8] was greater than 100. The “Amount of Sulfonate, Day 1” value [4] was 3.09 ± 1.58 ppm, the “Amount of Sulfonate, Day 14” value [4] was 0.126 ± 0.084 ppm and the “Amount of Sulfonate, Day 28” value [4] was 0.025 ± 0.015 ppm. For the same molecule, the “Amount of Sulfonate, Day 1N” value [4] was 0.31 ppm, the “Amount of Sulfonate, Day 14N” value [4] was 0.0126 ppm and the “Amount of Sulfonate, Day 28N” value [4] was 0.0025 ppm. The “elimination from the body, in words” value ([4]; listed as C4F9SO3^−) was “unexpectedly fast and effective elimination” and the “elimination from the body, in words” value ([4]; listed as perfluorobutanesulfonate) was “eliminates from the body more rapidly than perfluorohexanesulfonate and much more rapidly than perfluorooctanelsulfonate”.
With `O=S(=O)([O-])C(F)(F)C(F)(F)C(F)(F)C(F)(F)C(F)(F)C(F)(F)C(F)(F)C(F)(F)F.[K+]` [Example C8F17SO3K, Potassium perfluorooctanesulfonate] the “surface tension (surface energy)” value ([1]; 10 ppm) was 67.68 dynes/cm, the “surface tension (surface energy)” value ([1]; 100 ppm) was 54.09 dynes/cm and the “surface tension (surface energy)” value ([1]; 1000 ppm) was 33.17 dynes/cm. The “Surface Tension @ 2000 ppm” value [2] was 26.96 dyne/cm, the “Amount of Sulfonate, Day 1” value [4] was 419 ± 86 ppm and the “Amount of Sulfonate, Day 14” value [4] was 309 + 34 ppm. For the same molecule, the “Amount of Sulfonate, Day 28” value [4] was 237 ± 25 ppm, the “Amount of Sulfonate, Day 1N” value [4] was 419 ppm and the “Amount of Sulfonate, Day 14N” value [4] was 309 ppm. The “Amount of Sulfonate, Day 28N” value [4] was 237 ppm.
With `N.O=S(=O)(O)C(F)(F)C(F)(F)C(F)(F)C(F)(F)C(F)(F)C(F)(F)C(F)(F)C(F)(F)F` [FC-93, ammonium perfluorooctanesulfonate] the “solubility in buffered oxide etch” value ([5]; all concentrations (FIG. 4)) was “precipitated”.
For `O=S(=O)([O-])C1(F)C(F)(F)C(F)(F)C(F)(C(F)(F)C(F)(F)F)C(F)(F)C1(F)F.[K+]` (stereo not drawn) [FC-98, Potassium perfluoroethylcyclohexanesulfonate], the “Surface Tension @ 2000 ppm” value [2] was 26.94 dyne/cm and the “Observed Conductivity” value [3] was 3.2 uS/cm.
With `O=S(=O)([N-]S(=O)(=O)C(F)(F)C(F)(F)C(F)(F)C(F)(F)F)C(F)(F)C(F)(F)C(F)(F)C(F)(F)F.O=S(=O)([N-]S(=O)(=O)C(F)(F)C(F)(F)C(F)(F)C(F)(F)F)C(F)(F)C(F)(F)C(F)(F)C(F)(F)F.[Mg+2]` [Mg (DBI)2, Mg^+2[^−N(SO2C4F9)2]2] the surface tension ([1]; 200 ppm) was 46.6 dyne/cm, the surface tension ([1]; 450 ppm) was 40.2 dyne/cm and the surface tension ([1]; 960 ppm) was 35.0 dyne/cm. The surface tension ([1]; 1300 ppm) was 32.0 dyne/cm, the surface tension ([1]; 1700 ppm) was 29.0 dyne/cm and the surface tension ([1]; 2600 ppm) was 26.3 dyne/cm. The “Surface Tension @ 2000 ppm” value [2] was 27.04 dyne/cm.
In the case of `O=S(=O)([O-])C(F)(F)C(F)(F)C(F)(F)C(F)(F)C(F)(F)C(F)(F)C(F)(F)C(F)(F)F.O=S(=O)([O-])C(F)(F)C(F)(F)C(F)(F)C(F)(F)C(F)(F)C(F)(F)C(F)(F)C(F)(F)F.[Mg+2]` [Mg(C8F17SO3)2], the “Surface Tension @ 2000 ppm” value [2] is reported as 27.36 dyne/cm.
For `O.O.O.O.O.O.O=S(=O)([O-])C(F)(F)C(F)(F)C(F)(F)C(F)(F)F.O=S(=O)([O-])C(F)(F)C(F)(F)C(F)(F)C(F)(F)F.[Mg+2]` [Mg(SO3C4F9)2 · 6H2O], the “Surface Tension @ 2000 ppm” value [2] was 26.93 dyne/cm.
With `O=S(=O)(NS(=O)(=O)C(F)(F)C(F)(F)C(F)(F)C(F)(F)F)C(F)(F)C(F)(F)C(F)(F)C(F)(F)F` [bis(perfluorobutanesulfonyl)imide, HN(SO2C4F9)2] the “surface tension versus concentration profile, comparison in words” value [1] was “better surfactants than NH4^+−OSO2C8F17” and the appearance of solution ([5]; 1000 ppm) was “slightly hazy to the eye”.
In the case of “[^−N(SO2C4F9)2]2 (+)H3NCH(CH3)CH2[OCH(CH3)CH2]a[OCH2CH2]8.5[OCH(CH3)CH2]CNH3(+) (a+c=2.5) [(DBI)2 JEFFAMINE ™ ED600]”, the “surface tension (surface energy)” value ([1]; 10 ppm) is reported as 57.4 dynes/cm, the “surface tension (surface energy)” value ([1]; 100 ppm) is reported as 40.7 dynes/cm and the “surface tension (surface energy)” value ([1]; 1000 ppm) is reported as 32.7 dynes/cm. For the same molecule, the “surface tension versus concentration profile, comparison in words” value [1] was “significantly lower surface tensions than C4F9SO3K”.

Reference: patent US7030067B2, “Bis(perfluoroalkanesulfonyl)imides and their salts as surfactants/additives for applications having extreme environments and methods therefor” (priority 2001, dated 2006)
